Test system: conscious male spontaneously hypertensive rats (SHR)
Experiment: anti-hypertensive response: area under the control group blood pressure curve (mean arterial blood pressure, indwelling catheter) in conscious male spontaneously hypertensive rats
Type: in vivo
Details: cromakalim 0.075 mg/kg po, n=10
Procedure: Mean arterial blood pressures were measured from an indwelling catheter as described by Buckingham 1976 J. Pharm. Pharmac Vol. 28, pp 459-461. 1. Calculation of area under the control group blood pressure curve (AUC). Group mean arterial blood pressure values were calculated as % change from the pretreatment baseline. For each drug treatment group the area under the control group blood pressure curve was calculated using a trapezoidal method. […] Predicted AUC values were arrived at by combining values for each treatment given alone.

For `CC1(C)Oc2ccc(C#N)cc2[C@@H](N2CCCC2=O)[C@@H]1O` (racemic) [Cromakalim, (±)-6-cyano-3,4-dihydro-2,2-dimethyl-trans-4-(2-oxo-1-pyrrolidinyl)-2H-benzo[b]pyran-3-ol], the “AUC (0-2 h)” value (0-2 h) was 1941 and the “AUC (0-4 h)” value (0-4 h) was 2981.
